Patent US12421210B2, “Fused bicyclic heterocycles as therapeutic agents” (NEW YORK UNIVERSITY, priority 2018, dated 2025)
Like-named read-outs stand apart in the source and are kept apart here.

Biological target: human NAMPT enzyme (His-hNAMPT) (Homo sapiens (Human), UniProt P43490)
Assay: NAMPT enzymatic inhibition assay (fluorescence, NADH product)
Format: biochemical
[1] = [HDB], read-out: NAMPT IC50 (μM) [HDB]
[2] = [BPS], read-out: NAMPT IC50 (μM) [BPS]

Sequence of human NAMPT enzyme (His-hNAMPT) (P43490 whole entry): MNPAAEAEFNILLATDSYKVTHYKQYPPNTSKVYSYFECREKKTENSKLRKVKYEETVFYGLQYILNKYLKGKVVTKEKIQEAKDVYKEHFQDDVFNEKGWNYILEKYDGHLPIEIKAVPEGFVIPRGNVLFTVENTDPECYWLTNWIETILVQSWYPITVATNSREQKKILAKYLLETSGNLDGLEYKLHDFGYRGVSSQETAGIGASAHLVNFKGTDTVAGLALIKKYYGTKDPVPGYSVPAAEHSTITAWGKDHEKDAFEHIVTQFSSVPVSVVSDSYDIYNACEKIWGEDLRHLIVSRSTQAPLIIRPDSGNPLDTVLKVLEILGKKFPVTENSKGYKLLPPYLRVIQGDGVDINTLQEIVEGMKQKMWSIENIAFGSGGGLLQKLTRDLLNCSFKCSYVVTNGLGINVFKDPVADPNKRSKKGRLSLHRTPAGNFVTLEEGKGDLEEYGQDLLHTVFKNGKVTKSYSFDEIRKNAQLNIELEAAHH

Row | Compound | IC50 [1] [µM] | IC50 [2] [µM]
1 | CC(C)(C)OC(=O)N1C[C@H]2C[C@@H](CNC(=O)N3Cc4ccncc4C3)C[C@H]2C1 [Example 267, tert-butyl (3aR,5r,6aS)-5-((2,3-dihydro-1H-pyrrolo[3,4-c]pyridine-2-carboxamido)methyl)hexahydrocyclopenta[c]pyrrole-2(1H)-carboxylate] | – | 0.01 to 0.49
2 | Nc1ccc(/C=C/C(=O)NCC[C@@H]2[C@H]3CN(C(=O)N4CCCC4)C[C@@H]23)cn1 [Example 39, (E)-3-(6-aminopyridin-3-yl)-N-(2-((1R,5S,6s)-3-(pyrrolidine-1-carbonyl)-3-azabicyclo[3.1.0]hexan-6-yl)ethyl)acrylamide] | – | 0.01 to 0.49
3 | O=C(NCC[C@@H]1[C@H]2CN(c3cccc4ccccc34)C[C@@H]12)c1cc2ccncc2o1 [Example 121, N-(2-((1R,5S,6s)-3-(naphthalen-1-yl)-3-azabicyclo[3.1.0]hexan-6-yl)ethyl)furo[2,3-c]pyridine-2-carboxamide] | – | 0.01 to 0.49
4 | O=C(NCC[C@@H]1[C@H]2CN(C(=O)OC3CCOCC3)C[C@@H]12)c1ccc2nccn2c1 [Example 67, (1R,5S,6s)-tetrahydro-2H-pyran-4-yl 6-(2-(imidazo[1,2-a]pyridine-6-carboxamido)ethyl)-3-azabicyclo[3.1.0]hexane-3-carboxylate] | – | 0.01 to 0.49
5 | O=C(NCC[C@@H]1[C@H]2CN(C(=O)OC3CCCC3)C[C@@H]12)c1cc2ccncc2o1 [Example 71, (1R,5S,6s)-(cyclopentyl) 6-(2-(furo[2,3-c]pyridine-2-carboxamido)ethyl)-3-azabicyclo[3.1.0]hexane-3-carboxylate] | – | 0.01 to 0.49
6 | O=C(NCC[C@@H]1[C@H]2CN(C(=O)c3ccc(F)cc3)C[C@@H]12)c1cc(-c2cccnc2)on1 [Example 110, N-(2-((1R,5S,6s)-3-(4-fluorobenzoyl)-3-azabicyclo[3.1.0]hexan-6-yl)ethyl)-5-(pyridin-3-yl)isoxazole-3-carboxamide] | – | 0.01 to 0.49
7 | O=C(NCC[C@@H]1[C@H]2CN(c3nc(Cl)ncc3F)C[C@@H]12)N1Cc2ccccc2C1 [Example 225, N-(2-((1R,5S,6s)-3-(2-chloro-5-fluoropyrimidin-4-yl)-3-azabicyclo[3.1.0]hexan-6-yl)ethyl)isoindoline-2-carboxamide] | < 0.01 | –
8 | CC(=O)NCC[C@@H]1[C@H]2CN(C(=O)OC(C)(C)C)C[C@@H]12 [Example 14, (1R,5S,6s)-tert-butyl 6-(2-azetamidoethyl)-3-azabicyclo[3.1.0]hexane-3-carboxylate] | – | > 30
9 | O=C(NCC[C@@H]1[C@H]2CN(C(=O)CC3CCOCC3)C[C@@H]12)c1cnc2nccn2c1 [Example 106, N-(2-((1R,5S,6s)-3-(2-(tetrahydro-2H-pyran-4-yl)acetyl)-3-azabicyclo[3.1.0]hexan-6-yl)ethyl)imidazo[1,2-a]pyrimidine-6-carboxamide] | – | 0.01 to 0.49
10 | CC(C)(C)OC(=O)N1C[C@@H]2[C@H](C1)[C@H]2C(O)CNC(=O)/C=C/c1ccc(N)nc1 (stereo partly drawn) [Example 252, (1R,5S,6r)-tert-butyl 6-(2-((E)-3-(6-aminopyridin-3-yl)acrylamido)-1-hydroxyethyl)-3-azabicyclo[3.1.0]hexane-3-carboxylate] | – | 1 to 29
11 | O=C(NCC[C@@H]1[C@H]2CN(C(=O)OC3CCOCC3)C[C@@H]12)c1cc2ccncc2s1 [Example 85, (1R,5S,6s)-tetrahydro-2H-pyran-4-yl 6-(2-(thieno[2,3-c]pyridine-2-carboxamido)ethyl)-3-azabicyclo[3.1.0]hexane-3-carboxylate] | 0.01 to 0.49 | –

Next, values leading:

Row | IC50 [1] [µM] | IC50 [2] [µM] | Compound
12 | 0.01 to 0.49 | – | CS(=O)(=O)c1cccc(N2C[C@@H]3[C@@H](CCNC(=O)/C=C/c4cccnc4)[C@@H]3C2)c1 [Example 152, (E)-N-(2-((1R,5S,6s)-3-(3-(methylsulfonyl)phenyl)-3-azabicyclo[3.1.0]hexan-6-yl)ethyl)-3-(pyridin-3-yl)acrylamide]
13 | < 0.01 | – | O=C(/C=C/c1cccnc1)NCC[C@@H]1[C@H]2CN(c3cc(Cl)cc(Cl)c3)C[C@@H]12 [Example 148, (E)-N-(2-((1R,5S,6s)-3-(3,5-dichlorophenyl)-3-azabicyclo[3.1.0]hexan-6-yl)ethyl)-3-(pyridin-3-yl)acrylamide]
14 | – | 0.01 to 0.49 | O=C(/C=C/c1cccnc1)NCC[C@@H]1[C@H]2CN(C(=O)c3ccccc3)C[C@@H]12 [Example 22, (E)-N-(2-((1R,5S,6s)-3-benzoyl-3-azabicyclo[3.1.0]hexan-6-yl)ethyl)-3-(pyridin-3-yl)acrylamide]
15 | 0.01 to 0.49 | – | CNC(=O)COc1ncc(F)c(N2C[C@@H]3[C@@H](CCNC(=O)/C=C/c4cccnc4)[C@@H]3C2)n1 [Example 328, (E)-N-(2-((1R,5S,6s)-3-(5-fluoro-2-(2-(methylamino)-2-oxoethoxy)pyrimidin-4-yl)-3-azabicyclo[3.1.0]hexan-6-yl)ethyl)-3-(pyridin-3-yl)acrylamide]
16 | < 0.01 | – | CN(C)CCOc1ncc(F)c(N2C[C@@H]3[C@@H](CCNC(=O)/C=C/c4cccnc4)[C@@H]3C2)n1 [Example 311, (E)-N-(2-((1R,5S,6s)-3-(2-(2-(dimethylamino)ethoxy)-5-fluoropyrimidin-4-yl)-3-azabicyclo[3.1.0]hexan-6-yl)ethyl)-3-(pyridin-3-yl)acrylamide]
17 | 0.01 to 0.49 | – | O=C(/C=C/c1cccnc1)NCC[C@@H]1[C@H]2CN(Cc3cc(Cl)cc(Cl)c3)C[C@@H]12 [Example 251, (E)-N-(2-((1R,5S,6s)-3-(3,5-dichlorobenzyl)-3-azabicyclo[3.1.0]hexan-6-yl)ethyl)-3-(pyridin-3-yl)acrylamide]
18 | < 0.01 | – | O=C(/C=C/c1cccnc1)NCC[C@@H]1[C@H]2CN(c3nc(-c4ccccc4)ncc3F)C[C@@H]12 [Example 287, (E)-N-(2-((1R,5S,6s)-3-(5-fluoro-2-phenylpyrimidin-4-yl)-3-azabicyclo[3.1.0]hexan-6-yl)ethyl)-3-(pyridin-3-yl)acrylamide]
19 | 0.01 to 0.49 | – | CC(C)Oc1ncc(F)c(N2C[C@@H]3[C@@H](CCNC(=O)/C=C/c4cccnc4)[C@@H]3C2)n1 [Example 303, (E)-N-(2-((1R,5S,6s)-3-(5-fluoro-2-isopropoxypyrimidin-4-yl)-3-azabicyclo[3.1.0]hexan-6-yl)ethyl)-3-(pyridin-3-yl)acrylamide]
20 | < 0.01 | – | O=C(/C=C/c1cccnc1)NCC[C@@H]1[C@H]2CN(C(c3ccccc3)C(F)(F)F)C[C@@H]12 (stereo partly drawn) [Example 296, (E)-3-(pyridin-3-yl)-N-(2-((1R,5S,6s)-3-(2,2,2-trifluoro-1-phenylethyl)-3-azabicyclo[3.1.0]hexan-6-yl)ethyl)acrylamide]
21 | < 0.01 | – | O=C(/C=C/c1cccnc1)NCC[C@@H]1[C@H]2CN(c3nc(OCCN4CCOCC4)ncc3F)C[C@@H]12 [Example 331, (E)-N-(2-((1R,5S,6s)-3-(5-fluoro-2-(2-morpholinoethoxy)pyrimidin-4-yl)-3-azabicyclo[3.1.0]hexan-6-yl)ethyl)-3-(pyridin-3-yl)acrylamide]
22 | 0.01 to 0.49 | – | O=C(/C=C/c1cccnc1)NCC[C@@H]1[C@H]2CN(CCc3ccc(F)cc3)C[C@@H]12 [Example 250, (E)-N-(2-((1R,5S,6s)-3-(4-fluorophenethyl)-3-azabicyclo[3.1.0]hexan-6-yl)ethyl)-3-(pyridin-3-yl)acrylamide]
23 | 0.01 to 0.49 | – | O=C(/C=C/c1cccnc1)NCC[C@@H]1[C@H]2CN(c3ccnc4ccccc34)C[C@@H]12 [Example 143, (E)-3-(pyridin-3-yl)-N-(2-((1R,5S,6s)-3-(quinolin-4-yl)-3-azabicyclo[3.1.0]hexan-6-yl)ethyl)acrylamide]
